# Data published in the supplement of paper PMC10307832.
# Assays:
# Assay in all cases: relative viability (nuclei count vs DMSO), 5 days (fraction); higher = more cells survive
# MK-2206 + Phenformin = compound: NC1(c2ccc(-c3nc4ccn5c(=O)[nH]nc5c4cc3-c3ccccc3)cc2)CCC1 [MK-2206] + N=C(N)NC(=N)NCCc1ccccc1 [Phenformin] (partner 250 µM)
# Outline: (§1)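 Five library-drug doses in √10 steps were combined with a fixed anchor-drug dose, or a single drug was given alone, by pin tool to lung cancer cell lines in 1536-well plates the day after seeding. Nuclei were stained and counted after 5 days. Relative viability is the nuclei count in treated wells over that in vehicle wells, taken as the median of duplicate plates.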
# MK-2206 + Luminespib = compound: NC1(c2ccc(-c3nc4ccn5c(=O)[nH]nc5c4cc3-c3ccccc3)cc2)CCC1 [MK-2206] + CCNC(=O)c1noc(-c2cc(C(C)C)c(O)cc2O)c1-c1ccc(CN2CCOCC2)cc1 [Luminespib] (partner 0.01 µM)
# Outline: as §1
# MK-2206 + Lapatinib = compound: NC1(c2ccc(-c3nc4ccn5c(=O)[nH]nc5c4cc3-c3ccccc3)cc2)CCC1 [MK-2206] + CS(=O)(=O)CCNCc1ccc(-c2ccc3ncnc(Nc4ccc(OCc5cccc(F)c5)c(Cl)c4)c3c2)o1 [Lapatinib] (partner 2 µM)
# Outline: as §1
# Pictilisib + Navitoclax = compound: CS(=O)(=O)N1CCN(Cc2cc3nc(-c4cccc5[nH]ncc45)nc(N4CCOCC4)c3s2)CC1 [Pictilisib] + CC1(C)CCC(c2ccc(Cl)cc2)=C(CN2CCN(c3ccc(C(=O)NS(=O)(=O)c4ccc(N[C@H](CCN5CCOCC5)CSc5ccccc5)c(S(=O)(=O)C(F)(F)F)c4)cc3)CC2)C1 [Navitoclax] (partner 0.5 µM)
# Outline: as §1
# Pictilisib + Linsitinib = compound: CS(=O)(=O)N1CCN(Cc2cc3nc(-c4cccc5[nH]ncc45)nc(N4CCOCC4)c3s2)CC1 [Pictilisib] + C[C@]1(O)C[C@@H](c2nc(-c3ccc4ccc(-c5ccccc5)nc4c3)c3c(N)nccn32)C1 [Linsitinib] (partner 1 µM)
# Outline: as §1
cell line,measurement,setting,value
UMC-11,relative viability,MK-2206 + Phenformin; first compound 0.01 µM,0.351
same,relative viability,MK-2206 + Phenformin; first compound 0.03162 µM,0.312
same,relative viability,MK-2206 + Phenformin; first compound 0.3162 µM,0.33
same,relative viability,MK-2206 + Phenformin; first compound 1 µM,0.316
same,relative viability,MK-2206 + Luminespib; first compound 0.01 µM,1
same,relative viability,MK-2206 + Luminespib; first compound 0.03162 µM,0.944
same,relative viability,MK-2206 + Luminespib; first compound 0.3162 µM,1.12
same,relative viability,MK-2206 + Luminespib; first compound 1 µM,1.1
same,relative viability,MK-2206 + Lapatinib; first compound 0.01 µM,1.27
same,relative viability,MK-2206 + Lapatinib; first compound 0.03162 µM,1.1
same,relative viability,MK-2206 + Lapatinib; first compound 0.3162 µM,0.99
same,relative viability,MK-2206 + Lapatinib; first compound 1 µM,0.941
same,relative viability,Pictilisib + Navitoclax; first compound 0.02 µM,0.343
same,relative viability,Pictilisib + Navitoclax; first compound 0.06325 µM,0.281
same,relative viability,Pictilisib + Navitoclax; first compound 0.6325 µM,0.349
same,relative viability,Pictilisib + Navitoclax; first compound 2 µM,0.281
same,relative viability,Pictilisib + Linsitinib; first compound 0.02 µM,0.973
same,relative viability,Pictilisib + Linsitinib; first compound 0.06325 µM,1.03
same,relative viability,Pictilisib + Linsitinib; first compound 0.6325 µM,1.07
same,relative viability,Pictilisib + Linsitinib; first compound 2 µM,0.928
